Test results from US20220242851A1, “CRYSTAL FORM AND SALT OF QUINAZOLINE COMPOUND AND PREPARATION METHOD THEREOF” (SHENZHEN JINRUI FOUNDATION BIOTECH CO., LTD, priority 2019, published 2022).

Experiments:
[1] = Solid stability assay (XRPD, HPLC); assay type: physicochemical
Method: Sample concentration: 0.5 mg/mL
According to influencing factor and accelerated assay conditions, about 5 mg of the crystal form B of the compound of formula (I) was accurately weighed and placed in a dry and clean glass bottle to form a thin layer as a formal assay sample in duplicate. The sample was placed under an influencing factor assay condition (60° C., 92.5% RH) and accelerated conditions (40° C./75% RH and 60° C./75% RH). The sample was fully exposed, and covered with aluminum foil paper punched with small holes. In addition, a small amount of sample was placed in a 40 mL glass sample bottle under the same conditions to determine the crystal state. The sample placed under light irradiation condition (1.2×10^6 Lux•hr/near ultraviolet 200 w•hr/m^2) was fully exposed at room temperature.

[2] = system: subcutaneous xenograft tumor of human gastric cancer NCI-N87 cells; test: In vivo pharmacodynamics, NCI-N87 subcutaneous xenograft (Assay Example 4); design: species or system mouse; details: 0.5 mg/kg, compared with the vehicle control group
Method: (§1) Purpose of the assay: in vivo efficacy of the assay compound disclosed herein on subcutaneous xenograft tumor of human gastric cancer NCI-N87 cells in a BALB/c nude mouse model was evaluated.
Animals of the assay: female BALB/c nude mice, 6-8 weeks old, weighted 18-22 grams; supplier: shanghai sippr bk laboratory animals Ltd.
(§2) Human gastric cancer NCI-N87 cells were cultured in monolayer in vitro. The culture conditions were RPMI-1640 medium plus 10% fetal bovine serum, 100 U/mL penicillin, 100 μg/mL streptomycin, 37° C., 5% CO2. The passaging was performed by conventional digestion with trypsin-EDTA twice a week. When the cell saturation was 80%-90%, the cells were collected, counted and inoculated.
0.2 mL (10×10^6) of NCI-N87 cells (PBS+Matrigel, 1:1) were inoculated subcutaneously on the right back of each mouse. […]
The assay index was to investigate whether tumor growth is inhibited, delayed or cured. Tumor diameter was measured twice a week with a vernier caliper. […]
The antitumor efficacy of the compounds was evaluated by TGI (%) or tumor proliferation rate T/C (%). […]
Statistical analysis included the mean and standard error of mean (SEM) of tumor volume at each time point in each group (See Table 14 for specific data). […] The comparison between groups was analyzed by T-test, and the comparison among three or more groups was analyzed by one-way ANOVA. […]

[3] = system: subcutaneous xenograft tumor of human gastric cancer NCI-N87 cells; test: In vivo pharmacodynamics, NCI-N87 subcutaneous xenograft (Assay Example 3); design: species or system mouse; details: 0.8 mg/kg, compared with the vehicle control group
Method: as §1
Animals of the assay: female BALB/c nude mice, 6-8 weeks old, weighted 18-22 grams; supplier: Shanghai Ling Chang Biotechnology Co., Ltd.
as §2, with “U/mL streptomycin and 2 mM glutamine,” for “μg/mL streptomycin,”, “by the” for “by”
0.2 mL (10×10^6) of NCI-N87 cells (PBS+Matrigel, 1:1) were inoculated subcutaneously on the right back of each nude mouse. When the average tumor volume reached 158 mm^3, administration to each group was started.
The assay compounds were formulated into 0.04 mg/mL and 0.08 mg/mL clear solution in the solvents of 10% NMP (N-methylpyrrolidone)+10% ethylene glycol stearate+80% water.
The assay index was to investigate whether tumor growth is inhibited, delayed or cured. Tumor diameter was measured twice a week with a vernier caliper. The calculation formula of tumor volume was: V=0.5a×b^2, wherein a and b represent the long and short diameters of tumor, respectively.
The antitumor efficacy of the compounds was evaluated by TGI (%) or tumor proliferation rate T/C (%). TGI (%) reflects tumor growth inhibition rate. […]
Statistical analysis included mean and standard error of mean (SEM) of tumor volume at each time point in each group (See Table 13 for specific data). […] The comparison between groups was analyzed by T-test, and the comparison among three or more groups was analyzed by one-way ANOVA. […]

[4] = system: subcutaneous xenograft tumor of human esophageal carcinoma OE21 cells; test: In vivo pharmacodynamics, OE21 subcutaneous xenograft (Assay Example 5); design: species or system mouse
Method: Purpose of the assay: in vivo efficacy of the assay compound on subcutaneous xenograft tumor of human esophageal carcinoma OE21 cells in a BALB/c nude mouse model was evaluated.
Animals of the assay: female BALB/c nude mice, 6-8 weeks old, weighted 17-23 grams; supplier: shanghai sippr bk laboratory animals Ltd.
as §2, with “esophageal carcinoma OE21” for “gastric cancer NCI-N87”, “U/mL streptomycin and 2 mM glutamine,” for “μg/mL streptomycin,”
0.1 ml […] OE21 cells (PBS) were inoculated subcutaneously on the right back of each mouse. When the average tumor volume reached 112 mm^3, administration to each group was started.
The assay compound was formulated into a 0.15 mg/mL to 0.3 mg/mL clear or suspension solution in the solvents of 10% NMP+10% ethylene glycol stearate+80% water.
The assay index was to investigate whether tumor growth is inhibited, delayed or cured. Tumor diameter was measured twice a week with vernier caliper. The calculation formula of tumor volume was: V=0.5a×b^2, wherein a and b represent the long and short diameters of tumor, respectively.
The antitumor efficacy of the compounds was evaluated by TGI (%) or relative tumor proliferation rate T/C (%). TGI (%) reflects the tumor growth inhibition rate. TGI (%) was calculated as follows: TGI (%)=[(1−average tumor volume at the end of administration for a certain treatment group−average tumor volume at the beginning of administration for this treatment group))/(average tumor volume at the end of treatment for a vehicle control group−average tumor volume at the beginning of administration for this vehicle control group)]×100%.
Relative tumor proliferation rate T/C (%): the calculation formula was as follows: T/C (%)=average tumor volume at the end of administration for a certain treatment group/average tumor volume at the end of treatment for the vehicle control group×100%.
Statistical analysis included the mean and standard error of mean (SEM) of tumor volume at each time point in each group. One-way ANOVA was used for comparison among three or more groups. […] SPSS 17.0 was used for all data analysis. p<0.05 was considered a significant difference.

CYP1A2 = target: T1, CYP1A2 (Homo sapiens, UniProt P05177); test: Inhibition of CYP enzyme activity in human liver microsome, CYP1A2; assay type: in vitro ADME; details: human liver microsome
T1 construct: in the assay of CYP enzyme activity in human liver microsome; from tissue; host or cells: human liver microsome
T1 sequence (P05177 1-516): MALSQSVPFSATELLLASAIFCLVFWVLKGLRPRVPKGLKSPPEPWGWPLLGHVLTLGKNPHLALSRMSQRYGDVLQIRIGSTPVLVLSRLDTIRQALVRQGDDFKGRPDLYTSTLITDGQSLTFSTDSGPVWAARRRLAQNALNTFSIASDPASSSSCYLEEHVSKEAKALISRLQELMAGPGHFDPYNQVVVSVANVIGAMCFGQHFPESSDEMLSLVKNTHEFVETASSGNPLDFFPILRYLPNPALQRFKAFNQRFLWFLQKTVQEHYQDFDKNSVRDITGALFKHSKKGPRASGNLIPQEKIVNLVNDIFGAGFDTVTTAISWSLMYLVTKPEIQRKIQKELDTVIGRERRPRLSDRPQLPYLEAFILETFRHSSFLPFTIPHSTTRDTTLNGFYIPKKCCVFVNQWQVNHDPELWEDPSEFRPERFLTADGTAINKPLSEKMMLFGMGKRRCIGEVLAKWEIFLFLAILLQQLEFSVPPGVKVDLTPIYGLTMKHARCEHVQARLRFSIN
From the text: (§3) The results of the compound disclosed herein and the reference compound Poziotinib in the assay of CYP enzyme activity in human liver microsome were shown in the following table (Table 17).

CYP3A4 = target: T2, CYP3A4 (Homo sapiens, UniProt P08684); test: Inhibition of CYP enzyme activity in human liver microsome, CYP3A4; assay type: in vitro ADME
T2 construct: in the assay of CYP enzyme activity in human liver microsome; from tissue; host or cells: human liver microsome
From the text: as §3

T2 sequence (P08684 whole entry): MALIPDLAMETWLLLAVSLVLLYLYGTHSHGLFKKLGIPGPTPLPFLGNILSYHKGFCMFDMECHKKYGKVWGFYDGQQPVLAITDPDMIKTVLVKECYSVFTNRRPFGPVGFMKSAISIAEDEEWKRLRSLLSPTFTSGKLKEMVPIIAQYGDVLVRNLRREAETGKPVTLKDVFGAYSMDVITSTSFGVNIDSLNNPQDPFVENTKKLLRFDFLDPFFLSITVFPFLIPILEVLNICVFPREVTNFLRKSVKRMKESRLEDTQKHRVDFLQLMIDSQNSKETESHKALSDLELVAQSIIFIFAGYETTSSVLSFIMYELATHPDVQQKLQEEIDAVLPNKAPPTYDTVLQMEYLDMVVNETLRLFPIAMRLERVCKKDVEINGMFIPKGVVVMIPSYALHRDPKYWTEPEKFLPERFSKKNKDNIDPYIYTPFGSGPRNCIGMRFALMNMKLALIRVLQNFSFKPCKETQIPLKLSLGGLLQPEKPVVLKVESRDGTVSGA

## C=CC(=O)N1[C@@H]2CC[C@H]1C[C@H](Nc1cc3c(Nc4ccc(Cl)c(Cl)c4F)ncnc3cc1OC)C2.O=C(O)/C=C\C(=O)O
[1]; 40° C., 75% relative humidity, open, 1 month
  Total impurity content: 1.62%
[1]; 40° C., 75% relative humidity, open, 2 months
  Total impurity content: 1.52%
[1]; 40° C., 75% relative humidity, open, 3 months
  Total impurity content: 1.52%
[1]; 40° C., 75% relative humidity, open, 10 days
  Total impurity content: 1.64%
[1]; 60° C., 75% relative humidity, open, 1 month
  Total impurity content: 1.62%
[1]; 60° C., 75% relative humidity, open, 10 days
  Total impurity content: 1.63%
[1]; High humidity (25° C./92.5% relative humidity, open), 5 days
  Total impurity content: 1.65%
[1]; High humidity (25° C./92.5% relative humidity, open), 10 days
  Total impurity content: 1.65%
[1]; High temperature (60° C., open), 5 days
  Total impurity content: 1.64%
[1]; High temperature (60° C., open), 10 days
  Total impurity content: 1.64%
[1]; Initial, 0 day
  Total impurity content: 1.64%
[1]; Light irradiation (1.2 × 10^6 Lux · hr/near ultraviolet 200 w · hr/m^2, open), 10 days
  Total impurity content: 1.66%
[1]; Protected from light, 10 days
  Total impurity content: 1.64%
[1]; conclusion over all conditions
  solid stability (in words): good stability

## C=CC(=O)N1CCC(Nc2cc3c(Nc4ccc(F)c(Cl)c4)ncnc3cc2OC)CC1 [Control compound 2, reference compound]
[2]
  tumor inhibitory effect (in words): not significant

## C=CC(=O)N1CCC(Oc2cc3c(Nc4ccc(Cl)c(Cl)c4F)ncnc3cc2OC)CC1 [Poziotinib, reference compound]
[3]
  tumor inhibitory effect (in words): significant tumor inhibitory effect
[4]; 2/1.5 mg/kg
  body weight and clinical signs (in words): varying degrees of body weight loss and dandruff
[4]; 2/1.5 mg/kg, compared with the vehicle control group
  tumor inhibitory effect (in words): significant tumor inhibitory effect
[4]; 2/1.5 mg/kg, Day 21, Mean + SEM
  Tumor volume (Day 21): 57 ± 7 mm3
[4]; 2/1.5 mg/kg, from the 6th and 7th day, 1 mouse, then 3 mice
  body weight loss of individual mice (administration discontinued): more than 15%
[4]; discussion, high-dose group
  effect on the body weight of mice (in words): the body weight loss of mice was significant
[4]; mouse, in vivo
  dark yellow urine, suggestion of toxicity (in words): mice in the whole group had dark yellow urine
CYP1A2
  inhibitory activity on CYP1A2 (in words): no inhibitory activity
CYP3A4
  inhibitory activity on CYP3A4 (in words): no inhibitory activity
